Target: Human MAT2A (Homo sapiens (Human), UniProt P31153)
Assay: Phosphate Sensor Fluorescence Assay (MAT2A enzyme inhibition)
Assay type: biochemical
Conditions: MAT2A (1-395) 5.8 nM, 500 uM L-methionine, 500 uM ATP
Description: The ability of the compound of present disclosure to inhibit MAT2A enzyme was determined using a Phosphate Sensor Fluorescence Assay described below.
MAT2A enzyme is incubated with a test compound in DMSO or DMSO and its substrates (L-methionine and ATP) in a microtiter plate. The enzymatic reaction is stopped by the addition of Working Phosphate Sensor Mixture. The plate is analyzed for fluorescence at 450 nm. The high control (DMSO with enzyme and its substrates) gives high fluorescence which represents no inhibition of enzymatic activity while the low control (DMSO with MAT2A substrates and no enzyme) gives low fluorescence which represents full inhibition of enzymatic activity.
• Human MAT2A: Cepter, amino acids 1-395 (Clone ID 334, lot 00023-148) • Tris, pH 7.5: Invitrogen cat #15567-027 • KCl: Ambion cat #AM9640G • MgCl2: Ambion cat #AM9530G • Brij-35: Sigma cat B4184-10ML • DTT: Goldbio cat #DTT100 • BGG: Sigma cat #G5009-25G • PNP: Novus Biologicals cat #NBP1-50872 • 7-MEG: Cayman Chemical cat #15988 • L-Methionine: JTBaker P/N 2085-05 • ATP: Promega P/N V915B • Phosphate Sensor: Thermo Fisher cat #PV4407 • EDTA: Invitrogen cat #15575-038 • Assay plate: 384-well black polypropylene plate: Corning P/N 3573
• Assay Buffer: 50 mM Tris, pH 7.5/50 mM KCl/10 mM MgCl2/0.01% Brij-35/1 mM DTT/0.01% BGG/40 nM PNP/6 uM 7-MEG • MAT2A: 5.8 nM MAT2A (1-395), Cepter, clone ID 334, lot 00023-148 before the addition of Working Phosphate Sensor Mixture • L-methionine: 500 uM before the addition of Working Phosphate Sensor Mixture • ATP: 500 uM before the addition of Working Phosphate Sensor Mixture
For the assay, a mixture of 1 mM L-methionine/1 mM ATP (2× final pre-stopped concentration) in assay buffer; MAT2A (2× final pre-stopped concentration) in Assay Buffer and Working Phosphate Sensor Mixture (1.5 uM Phosphate Sensor/30 mM EDTA in Assay Buffer, which is 3× final concentrations) were prepared. Test compounds or DMSO were added to the appropriate well using a Beckman Coulter Echo 550 acoustic liquid handler. 10 μl/well of Assay Buffer was added to the wells corresponding to the negative control and 10 μl/well of MAT2A was added to all the wells except for those corresponding to the negative control. After incubating the plate at room temperature for 15 minutes, 10 μl/well of the 1 mM L-methionine/1 mM ATP mixture was added to all wells. The plate was centrifuged at 1000 rpm for 1 minute and then incubated at room temperature for 1 hour. 10 μl of the Working Phosphate Sensor Mixture was added to all wells and the plate was centrifuged at 1000 rpm for 1 minute. The plate was read for fluorescence at 450 nm after exciting at 430 nm on a Tecan Spark microplate reader.
Percent inhibition was calculated in Chemical and Biological Information System (CBIS), (ChemInnovation Software Inc.). Curves were fitted by CBIS as % inhibition vs. log [compound concentration] using a 4-parameter inhibition model.

Chain of Human MAT2A (P31153 whole entry): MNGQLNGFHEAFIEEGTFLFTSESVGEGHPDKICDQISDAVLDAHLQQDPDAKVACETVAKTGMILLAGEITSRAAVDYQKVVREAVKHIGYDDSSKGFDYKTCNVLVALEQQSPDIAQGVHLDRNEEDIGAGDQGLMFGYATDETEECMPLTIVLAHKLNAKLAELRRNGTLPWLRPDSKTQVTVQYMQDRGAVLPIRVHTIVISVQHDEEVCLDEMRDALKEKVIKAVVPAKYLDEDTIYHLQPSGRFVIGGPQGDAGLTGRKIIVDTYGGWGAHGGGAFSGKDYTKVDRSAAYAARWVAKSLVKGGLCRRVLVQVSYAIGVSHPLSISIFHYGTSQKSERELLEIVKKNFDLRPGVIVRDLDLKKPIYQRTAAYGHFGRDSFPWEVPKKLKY

| IC50 [nM] | SMILES |
| --- | --- |
| < 200 | O=C(Nc1cccc(-n2c(=O)[nH]c(=O)c3ccc(Cl)cc32)c1)c1csc(-n2c(=O)[nH]c(=O)c3ccc(Cl)cc32)c1 [Example 2, 5-(7-Chloro-2,4-dioxo-3,4-dihydroquinazolin-1(2H)-yl)-N-(3-(7-chloro-2,4-dioxo-3,4-dihydroquinazolin-1(2H)-yl)phenyl)thiophene-3-carboxamide] |
| < 200 | CN(C)c1nc(=O)n(-c2cccc(NC(=O)c3csc(-n4c(=O)nc(N(C)C)c5ccc(C(F)(F)F)cc54)c3)c2)c2cc(C(F)(F)F)ccc12 [Example 6, 5-(4-(Dimethylamino)-2-oxo-7-(trifluoromethyl)quinazolin-1(2H)-yl)-N-(3-(4-(dimethylamino)-2-oxo-7-(trifluoromethyl)quinazolin-1(2H)-yl)phenyl)thiophene-3-carboxamide] |
| < 200 | O=C(Nc1cccc(-n2c(=O)[nH]c(=O)c3ccc(Cl)cc32)c1)c1cccc(-n2c(=O)[nH]c(=O)c3ccc(Cl)cc32)c1 [Example 7, 3-(7-Chloro-2,4-dioxo-3,4-dihydroquinazolin-1(2H)-yl)-N-(3-(7-chloro-2,4-dioxo-3,4-dihydroquinazolin-1(2H)-yl)phenyl)benzamide] |
| < 200 | CN(C)c1nc(=O)n(-c2cccc(NC(=O)c3cc(-n4c(=O)nc(N(C)C)c5ccc(Br)cc54)n(C)n3)c2F)c2cc(Cl)ccc12 [Example 10, 5-(7-Bromo-4-(dimethylamino)-2-oxoquinazolin-1(2H)-yl)-N-(3-(7-chloro-4-(dimethylamino)-2-oxoquinazolin-1(2H)-yl)-2-fluorophenyl)-1-methyl-1H-pyrazole-3-carboxamide] |
| < 200 | CN(C)c1nc(=O)n(-c2cccc(NCc3csc(-n4c(=O)nc(N(C)C)c5ccc(Cl)cc54)c3)c2)c2cc(Cl)ccc12 [Example 11, 7-Chloro-1-(4-(((3-(7-chloro-4-(dimethylamino)-2-oxoquinazolin-1(2H)-yl)phenyl)amino)methyl)thiophen-2-yl)-4-(dimethylamino)quinazolin-2(1H)-one] |

Further lines, the compound ahead of its results:

| SMILES | IC50 [nM] |
| --- | --- |
| CN(C)c1nc(=O)n(-c2cccc(NC(=O)c3csc(-n4c(=O)nc(N(C)C)c5ccc(Cl)cc54)c3)c2)c2cc(Cl)ccc12 [Example 1, 5-(7-Chloro-4-(dimethylamino)-2-oxoquinazolin-1(2H)-yl)-N-(3-(7-chloro-4-(dimethylamino)-2-oxoquinazolin-1(2H)-yl)phenyl)thiophene-3-carboxamide] | < 200 |
| Cc1c(C(=O)Nc2cccc(-n3c(=O)nc(N(C)C)c4ccc(Cl)cc43)c2)csc1-n1c(=O)nc(N(C)C)c2ccc(Cl)cc21 [Example 3, 5-(7-Chloro-4-(dimethylamino)-2-oxoquinazolin-1(2H)-yl)-N-(3-(7-chloro-4-(dimethylamino)-2-oxoquinazolin-1(2H)-yl)phenyl)-4-methylthiophene-3-carboxamide] | < 200 |
| CN(C)c1nc(=O)n(-c2cccc(NC(=O)c3ncc(-n4c(=O)nc(N(C)C)c5ccc(Cl)cc54)n3C)c2)c2cc(Cl)ccc12 [Example 4, 5-(7-Chloro-4-(dimethylamino)-2-oxoquinazolin-1(2H)-yl)-N-(3-(7-chloro-4-(dimethylamino)-2-oxoquinazolin-1(2H)-yl)phenyl)-1-methyl-1H-imidazole-2-carboxamide] | < 200 |
| O=C(Nc1cccc(-n2c(=O)[nH]c(=O)c3ccc(C(F)(F)F)cc32)c1)c1csc(-n2c(=O)[nH]c(=O)c3ccc(C(F)(F)F)cc32)c1 [Example 5, 5-(2,4-Dioxo-7-(trifluoromethyl)-3,4-dihydroquinazolin-1(2H)-yl)-N-(3-(2,4-dioxo-7-(trifluoromethyl)-3,4-dihydroquinazolin-1(2H)-yl)phenyl)thiophene-3-carboxamide] | < 200 |
| CN(C)c1nc(=O)n(-c2cccc(NC(=O)c3cnc(-n4c(=O)nc(N(C)C)c5ccc(Cl)cc54)s3)c2)c2cc(Cl)ccc12 [Example 8, 2-(7-Chloro-4-(dimethylamino)-2-oxoquinazolin-1(2H)-yl)-N-(3-(7-chloro-4-(dimethylamino)-2-oxoquinazolin-1(2H)-yl)phenyl)thiazole-5-carboxamide] | < 200 |
| Cn1c(-n2c(=O)[nH]c(=O)c3ccc(Cl)cc32)cnc1C(=O)Nc1cccc(-n2c(=O)[nH]c(=O)c3ccc(Cl)cc32)c1 [Example 9, 5-(7-Chloro-2,4-dioxo-3,4-dihydroquinazolin-1(2H)-yl)-N-(3-(7-chloro-2,4-dioxo-3,4-dihydroquinazolin-1(2H)-yl)phenyl)-1-methyl-1H-imidazole-2-carboxamide] | < 200 |
| CN(C)c1nc(=O)n(-c2cccc(OCc3csc(-n4c(=O)nc(N(C)C)c5ccc(Cl)cc54)c3)c2)c2cc(Cl)ccc12 [Example 12, 7-Chloro-1-(4-((3-(7-chloro-4-(dimethylamino)-2-oxoquinazolin-1(2H)-yl)phenoxy)methyl)thiophen-2-yl)-4-(dimethylamino)quinazolin-2(1H)-one] | < 200 |

— US20250243188A1, “METHIONINE ADENOSYLTRANSERASE 2A INHIBITORS” (IDEAYA BIOSCIENCES, INC., priority 2022, published 2025)
